Measured values: patent publication US7795285B2, “Anti-trypanosomiasis agent” (Fujifilm Corporation, priority 2004, dated 2010)
Read-outs that look alike come from different tables or passages of the source.

What was measured:
Assay type in all cases: cell-based
[1] = system: Trypanosoma brucei rhodensiense (STIB 900 strain); assay: African trypanosome protozoa growth inhibition screening test (Alamar Blue, 72 hours); conditions: for IC50: Trypanosoma brucei, read-out: 50% growth inhibiting concentration Trypanosoma brucei rhod.; for Selective toxicity: chemotherapy index, rat L6 cells versus African trypanosome protozoa
Experimental: In the present example, protozoa of Trypanosoma brucei rhodensiense (STIB 900 strain), a trypamastigote living in blood stream, was used. The medium used in the experiment was a MEM medium which was sterilized with a filter and supplemented with 25 mM N-2-hydroxyethylpiperazine-2-ethansulfonic acid (HEPES), 1 g/L glucose, 1% MEM non-essential amino acid, 0.2 mM 2-mercaptoethanol, 2 mM sodium pyruvate, 0.1 mM hypoxanthine, and 15% heat-treated horse serum. The protozoa was cultured in an atmosphere of CO2 concentration 5%, at a temperature of 37° C.
The compounds of the present invention to be used in the present test and the positive target drug (melarsoprol) were dissolved in DMSO to make a test solution of a predetermined concentration. A medium containing 8×10^3 protozoa, and a test solution containing a drug of a predetermined concentration or a drug-free DMSO were added to wells of a 96-well culture plate, and subsequently, medium was added so that the amount in each well becomes 100 μL. Test solutions were taken by duplicates. After culturing the culture plate for 72 hours in an incubator, growth inhibition activity was tested. Test was conducted as follows.
10 μL of Alamar Blue aqueous solution was added to each well, and the resultant was further cultured for 2 hours. Next, the culture plate was placed on a fluorescent micro-plate reader (Spectramax Gemeni XS; US Molecular Device), radiated at an excited wavelength of 536 nm. Fluorescent intensity was measured at 588 nm, to calculate the trypanosome protozoa infected rate of the test solution added-group, and of the control group. From the protozoan infection rate obtained in the above, growth inhibition rate was calculated with the following formula, to obtain a 50% growth inhibition concentration (IC50). Growth inhibition rate (%)={1−(b−a)/(c−a)}×100 a: early infection rate b: infection rate when test solution was added c: infection rate of the control
Chemotherapy index used as an index of selective toxicity against African trypanosome protozoa was calculated with the following formula, to determine drug efficacy.

[2] = Growth inhibition test of rat L6 cells (Alamar Blue, 72 hours); conditions: 72 hours culture, Table 1, read-out: 50% growth inhibiting concentration Cytotoxicity L6
Experimental: (§1) Rat derived-L6 cells (rat skeletal myoblast cell) were used. As medium, RPMI1640 medium was supplemented so that L-glutamin (200 mM) is 1%, and fetal bovine serum 10%, and the medium was cultured under CO2 concentration 5%, at 37° C. The compounds of the present invention and the target drugs to be used in the test were dissolved in DMSO, to make a test solution of a predetermined concentration. Pre-culture was conducted and medium containing cells which have entered the logarithmic growth phase was taken to wells of a 96-well culture plate. Then, a test solution containing drug of a predetermined concentration or a drug-free DMSO was added. Test solutions were taken by duplicates. Culture plate was cultured for 72 hours in an incubator, to test the growth inhibition activity. Test was conducted as follows.
(§2) 10 μL of Alamar Blue aqueous solution was added to each well, and the resultant was further cultured for 2 hours. Next, the culture plate was placed on a fluorescent micro-plate reader (Spectramax Gemeni XS; US Molecular Device), radiated at an excited wavelength of 536 nm. Fluorescent intensity was measured at 588 nm, and residual rate of L6 cells of the test solution added group, and that of the control was calculated. From the cell residual rate obtained in the above, growth inhibition rate to L6 cells was calculated, to obtain a 50% growth inhibition concentration (IC50). Growth inhibition rate (%)={(C−A)/(B−A)}×100 A: primary cell count B: cell count of control 3 days after C: cell count of wells added with a sample, 3 days after […]

[3] = system: Trypanosoma cruzi (Tulahuen C2C4 strain); assay: American trypanosome protozoa growth inhibition screening test (CPRG/Nonidet, 96 hours); conditions: for IC50: Trypanosoma cruzi, Tulahuen C2C4 strain in rat L6 cells, 96 hours culture, read-out: 50% growth inhibiting concentration Trypanosoma cruzi; for Selective toxicity: chemotherapy index, rat L6 cells versus American trypanosome protozoa
Experimental: In the present example, amastigote and trypomastigote infected with rat L6 cells of protozoa of Trypanosoma cruzi (Tulahuen C2C4 strain) were used. As medium used in the test, RPMI 1640 medium containing L6 cells was supplemented so that L-glutamine (200 mM) becomes 1%, fetal bovine serum becomes 10%, which was cultured under CO2 concentration 5%, at 37° C.
The compounds of the present invention to be used in the test and the positive target agent (benznidazole) were dissolved in DMSO to make a test solution of a predetermined concentration. A medium containing 5×10^3 protozoa was added to wells of a 96-well culture plate, and pre-cultured for 48 hours. After replacing the medium, test solution containing drug of a predetermined concentration or a drug-free DMSO was added. Test solutions were taken by duplicates. After culturing the culture plate in an incubator for 96 hours, growth inhibition activity was tested. Test was conducted as follows.
50 μL of CPRG/Nonidet was added to each well, and allowed to rest for 2 to 6 hours. Next, the culture plate was placed on a fluorescent micro-plate reader, and the absorbance was measured at 540 nm. Growth inhibition rate was calculated with the following formula based on the protozoan infection rate which was obtained by calculating trypanosome infection rate of test solution added group and control group, to obtain a 50% growth inhibition concentration (IC50). Growth inhibition rate (%)={1−(b−a)/(c−a)}×100 a: early infection rate b: infection rate when test solution was added c: infection rate of the control
Chemotherapy index used as an index of selective toxicity against American trypanosome protozoa was calculated with the following formula, to determine drug efficacy.

[4] = system: Rat derived-L6 cells (rat skeletal myoblast cell); assay: Growth inhibition test of rat L6 cells (Alamar Blue, 72 hours); conditions: 72 hours culture, Table 2, read-out: 50% growth inhibiting concentration Cytotoxicity L6
Experimental: as §1, §2

[5] = STIB900, STIB 900 strain, bloodstream form, 72 hours culture
[6] = L6 cells (rat skeletal myoblasts)

| SMILES | IC50 [1, 5] | Selective toxicity [1] | IC50 at 72 h [2, 6] | IC50 [3] | Selective toxicity [3] | IC50 [4] | IC50 ([1]; STIB900, 72 h) | IC50 at 72 h [2] |
| --- | --- | --- | --- | --- | --- | --- | --- | --- |
| CCn1c(=O)/c(=C2\C=CN(C)c3ccccc32)s/c1=C\c1oc2ccccc2[n+]1CC [A-2] | 0.012 µM | 533 | 6.4 µM | 0.53 µM | 10 | – | – | – |
| CCn1c(=O)/c(=C2\Sc3ccccc3N2C)s/c1=C\c1cccc[n+]1CCOCCOCCOC [B-5] | 0.37 µM | 338 | 125 µM | 29 µM | 4.3 | – | – | – |
| CCn1c(=O)/c(=C2\SCCN2C)s/c1=C\c1sc2ccc3ccccc3c2[n+]1CC [B-1] | 0.095 µM | 2030 | 193 µM | 40 µM | 4.8 | – | – | – |
| CCn1c(=O)/c(=C2\Oc3c(ccc4ccccc34)N2C)s/c1=C\C1=[N+](CC)CCS1 [B-10] | 0.035 µM | 529 | 18.5 µM | 0.35 µM | 53 | – | – | – |
| O=C(Cn1ccnc1[N+](=O)[O-])NCc1ccccc1 [benznidazole, reference compound] | – | – | – | 0.87 µM | – | – | – | – |
| CCn1c(=O)/c(=C2\Oc3ccc4ccccc4c3N2C)s/c1=C\c1scc(C)[n+]1C [B-9] | 0.024 µM | 592 | 14.2 µM | 0.22 µM | 65 | – | – | – |
| CCn1c(=O)/c(=C2\Sc3ccccc3N2C)s/c1=C\c1cccc[n+]1CCOCCOCCO [B-6] | 0.94 µM | 66 | 61.9 µM | – | – | – | – | – |
| CCn1c(=O)c(=C2C=CN(C)C=C2)s/c1=C\c1sc2c3ccccc3ccc2[n+]1CC [A-1] | 0.76 µM | 176 | 134 µM | 48 µM | 2.8 | – | – | – |
| CCn1c(=O)/c(=c2\s/c(=C3/Sc4ccccc4N3C)c(=O)n2CC)s/c1=C\c1sc2ccccc2[n+]1C [C-1] | 0.009 µM | >15600 | > 140 µM | 14 µM | >10 | > 140 µM | – | – |
| Nc1nc(N)nc(Nc2ccc([As]3SCC(CO)S3)cc2)n1 (stereo not shown) [melarsoprol, reference compound] | – | 1300 | – | – | – | – | 0.006 µM | 7.8 µM |
